Data on three molecules can be found in patent US8580834B2, “Small molecule modulators of hepatocyte growth factor (scatter factor) activity” (Angion Biomedica Corp., priority 2002, dated 2013).

The subject of one data set is HUVECs. Kind of data set: Nitric oxide production in HUVECs, DAF 2-DA fluorescence. Format: cell-based, human. The settings on record: 24 hours. As for the experimental part:
c. […] HUVECs are incubated with either vehicle, HGF/SF, instant compounds, or SNAP for 24 hours, loaded with the nitric oxide-sensitive fluorescence indicator DAF 2-DA and imaged under a laser scanning confocal microscope.
HGF and compounds of the invention may exert their anti-apoptotic effects in part through stimulation of nitric oxide production. We incubated HUVECs with either HGF or instant compounds and measured NO production using the nitric oxide-sensitive fluorescence indicator DAF 2-DA. […] Without wishing to be bound to any particular theory, we propose that the anti-apoptotic activities of both HGF and compounds of the invention may be mediated by nitric oxide production.

A short description of data set [1]: MTT cell viability assay, adriamycin-induced apoptosis. Format: cell-based. The settings on record: dog, MDCK cells, of untreated cells, read-out: cell viability, adriamycin alone. The text has this:
(§1) a. HGF/SF and instant compounds have significant anti-apoptotic activity in cultured cell lines.
(§2) Using the MTT cell viability assay we tested the ability of compounds of the invention to protect cells from adriamycin-induced apoptosis. […] Adriamycin alone decreased cell viability to 56% of untreated cells.

The next data set has as its system MDCK cells. The data set is described as above. Format: cell-based.
Description: as §1, §2

A further data set relates to C57BL/6 mice. To be noted: earlier studies with HGF; cited from earlier work.
For data set [2], the system named is NIH-3T3 cells transfected with c-met receptor. Kind of data set: Protection against adriamycin-induced apoptosis, c-met transfected NIH-3T3 cells, MTT assay. Format: cell-based. The settings on record: pre-treated 48 hr with HGF (50 ng/ml) or compound (12 mg/ml), adriamycin (15 mM) 2 hr. As for the experimental part:
b. Protection from apoptosis in NIH-3T3 cells transfected with c-met receptor.
NIH3T3 cells were pre-treated with HGF (50 ng/ml) or compound (12 mg/ml) for 48 hr. Cells were then exposed to adriamycin (ADR) (15 mM) for 2 hr, and post-incubated for 48 hr before performing the MTT assay. […] There was no protection from apoptosis by either compound in non-transfected cells lacking the c-met receptor.

For data set [3], the system named is human hepatic stellate cell line LX2. Kind of data set: Antifibrotic activity: collagen I mRNA in LX2 cells, real time PCR. Format: cell-based. The settings on record: serum starved LX2 cells, 24 hours; HGF 100 ng/ml, compounds 12 to 24 ug/ml. Here is the method:
a. Antifibrotic Activity in Hepatic Stellate Cells. Serum starved (activated) LX2 cells (an immortalized human hepatic stellate cell line) that are treated with HGF/SF or a compound of the invention show a decrease in collagen I mRNA expression, as well as expression of other fibrotic marker genes, related to significant antifibrotic activity.
The antifibrotic effects of HGF and compounds of the invention in the immortalized human hepatic stellate cell line LX2 are determined. Serum starved LX2 cells are treated for 24 hours with HGF at 100 ng/ml and compounds of the invention at doses ranging from 12 to 24 ug/ml. RNA is then isolated and real time PCR was performed to evaluate changes in collagen I mRNA. […] Additional experiments to determine the effects of HGF and compounds on TGFb-1, bPDGF-R and MMP-1 mRNA are also performed to more completely characterize activities of these compounds which can contribute to their antifibrotic effects.

The test system of another data set is isolated aortic rings. Kind of data set: Aortic ring assay. The class given is cell-based, Sprague Dawley rats. To be noted: instant compound or HGF (100 ng/ml), day 5. The text has this:
a. Aortic ring assay. Thoracic artery rings from rats are embedded in Matrigel and grown for 5 days in the presence or absence of HGF/SF or compounds of the invention. Treatment with compounds of the invention causes an increased outgrowth from the rings similar to that seen with HGF/SF.
Thoracic aortas from 100 gm Sprague Dawley rats are isolated under sterile conditions and cut into rings of approximately 0.8 to 1.0 mm in length. The rings are embedded in Matrigel in the bottom of 48 well culture plates and instant compound […] or HGF (100 ng/ml, as positive control) was added in […] of serum-free tissue culture medium (Human endothelial-SFM basal growth medium plus 1% bovine serum albumin). An inventive compound or HGF was replenished on day 4; on day 5, the rings were photographed and examined for outgrowths. […] Without wishing to be bound to any particular theory, we propose that inventive compounds are capable of activating proliferation of cells required for angiogenesis.

Turning to `CC(=O)N[C@@H](C(=O)O)C(C)(C)SN=O` (racemic) [SNAP, reference compound], the “nitric oxide production (DAF 2-DA fluorescence)” value in the data set with HUVECs is listed as “significant increase in fluorescence”.
On to `COc1cccc2c1C(=O)c1c(O)c3c(c(O)c1C2=O)C[C@@](O)(C(=O)CO)C[C@@H]3O[C@H]1C[C@H](N)[C@H](O)[C@H](C)O1` [Adriamycin, reference compound], for which, in data set [1], the viability came to 56%.
For the molecule “HGF: pleiotropic growth factor that stimulates cell growth, cell motility, morphogenesis and angiogenesis”, in the data set on MDCK cells (adriamycin-induced apoptosis), the “cell viability after pretreatment, then adriamycin” value is recorded as 94%. In the data set with MDCK cells (without adriamycin), the “cell viability, compound or HGF alone” value is given as “no effect on cell viability”. In addition, the vessel area entry with C57BL/6 mice was “dose-dependently increases the vessel area”. The “protection from adriamycin-induced apoptosis (MTT)” value in data set [2] is on record as “protect the cells from adriamycin-induced apoptosis”. Also, the “decrease in collagen I mRNA expression” value in data set [3] turned out to be 70%. For the same molecule, the “endothelial cell outgrowth from aortic rings” value with isolated aortic rings is recorded as “stimulated equivalent endothelial cell outgrowth”. The entries for the “nitric oxide production (DAF 2-DA fluorescence)” value in the data set on HUVECs and in the data set with HUVECs (listed as HGF/SF) were “stimulate nitric oxide production” and “significant increase in fluorescence”, respectively.
